From patent US6281214A, “Biphenyl derivatives” (Eisai Co., Ltd, priority 1994, dated 2001)
Read-outs that look alike come from different tables or passages of the source.

Legend:
Set-up in all cases: species or system SD rats
serotonin S2 receptor = molecular target: T1, serotonin S2 receptor (Rattus norvegicus, UniProt P14842); assay: serotonin S2 receptor binding test ([3H] Ketanserin Binding Test); conditions: 1 nM [3H] Ketanserin, rat cortex, 37° C., 15 minutes
T1 construct: The receptor fraction prepared from the cortex was molten and suspended; from tissue; host or cells: cerebral cortex of SD rats (membrane fraction)
T1 sequence (P14842 whole entry): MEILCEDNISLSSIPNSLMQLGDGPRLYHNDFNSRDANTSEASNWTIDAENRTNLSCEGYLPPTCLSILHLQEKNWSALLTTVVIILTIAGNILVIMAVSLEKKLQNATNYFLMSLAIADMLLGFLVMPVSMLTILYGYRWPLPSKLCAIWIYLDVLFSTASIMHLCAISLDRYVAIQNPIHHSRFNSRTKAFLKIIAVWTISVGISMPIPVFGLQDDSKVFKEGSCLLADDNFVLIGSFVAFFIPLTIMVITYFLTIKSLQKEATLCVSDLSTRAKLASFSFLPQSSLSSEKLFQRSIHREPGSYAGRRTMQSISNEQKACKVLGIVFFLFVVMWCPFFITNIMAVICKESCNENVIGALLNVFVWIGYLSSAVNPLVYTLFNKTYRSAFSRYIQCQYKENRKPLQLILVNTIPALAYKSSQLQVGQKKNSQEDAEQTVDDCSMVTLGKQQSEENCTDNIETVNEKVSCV
Procedure: (§1) The compounds of the present invention were subjected to each of serotonin S2 receptor binding test, dopamine D2 receptor binding test and adrenergic α1 receptor binding test.
(§2) The following reagents were used in this test.
(§3) These reagents and samples were each dissolved in 10% ethanol before use. Among them, water-insoluble compounds were each dissolved in ethanol and the obtained solution was diluted with distilled water to an ethanol concentration of 10%. Further, Methylsergide maleate was used in a state dissolved in distilled water.
(§4) SD rats aged 6 to 8 weeks were used.
(§5) SD rats were each slaughtered with a guillotine to extirpate its cerebrum. The cortex and corpus striatum were separated from the cerebrum. The former was used in serotonin S2 receptor binding test and adrenergic α1, receptor binding test, while the latter was used in dopamine D2 receptor binding test.
(§6) The cortex was homogenized in a 0.32 M sucrose solution in an amount ten times the wet weight of the cortex by the use of a teflon glass homogenizer and the resulting mixture was centrifuged at 10,000×G for 20 minutes. The obtained sediment was suspended in 50 mM Tris hydrochloride (pH 7.4) in an amount ten times the initial wet weight of the cortex by the use of a histocothrom, and the obtained suspension was centrifuged at 10,000×G for 20 minutes. This operation was repeated twice. The obtained sediment was suspended in 50 mM Tris hydrochloride (pH 7.4) in an amount 20 times the initial wet weight of the cortex by the use of a histocothrom. The suspension thus prepared was used as a receptor fraction. This receptor fraction was stored at -80° C. until use.
4. [^3 ] Ketanserin Binding Test
The receptor fraction prepared from the cortex was molten and suspended by the use of a histocothrom. The resulting suspension was incubated together with 1 nM-[^3 H] Ketanserin at 37° C. for 15 minutes. The resulting reaction system was filtered through a Whatman GF/B glass filter with an MR-30R type cell harvester mfd. by Blandel. The resulting filter was washed twice with 5 ml of 50 mM Tris hydrochloride (ph 7.4) cooled with ice and the radioactivity of the Ketanserin bound the receptor was determined by the use of a liquid scintillation counter with 5 ml of ACS II. The binding detected in the presence of […] of Methylsergide was regarded as nonspecific binding.
(§7) Each IC50 value was calculated by the probit method and each Ki value was determined by the following formula: [formula]
(§8) In the above formula, C represents the concentration of radioligand, and Kd represents the affinity of radioligand for the receptor as determined by the Scatchard analysis.

dopamine D2 receptor = molecular target: T2, dopamine D2 receptor (Rattus norvegicus, UniProt P61169); assay: dopamine D2 receptor binding test ([3H] Spiperone Binding Test); conditions: 1 nM [3H] Spiperone, rat corpus striatum, room temperature, 60 minutes
T2 construct: the receptor fraction prepared from the corpus striatum was molten and suspended; from tissue; host or cells: corpus striatum of SD rats (membrane fraction)
T2 sequence (P61169 whole entry): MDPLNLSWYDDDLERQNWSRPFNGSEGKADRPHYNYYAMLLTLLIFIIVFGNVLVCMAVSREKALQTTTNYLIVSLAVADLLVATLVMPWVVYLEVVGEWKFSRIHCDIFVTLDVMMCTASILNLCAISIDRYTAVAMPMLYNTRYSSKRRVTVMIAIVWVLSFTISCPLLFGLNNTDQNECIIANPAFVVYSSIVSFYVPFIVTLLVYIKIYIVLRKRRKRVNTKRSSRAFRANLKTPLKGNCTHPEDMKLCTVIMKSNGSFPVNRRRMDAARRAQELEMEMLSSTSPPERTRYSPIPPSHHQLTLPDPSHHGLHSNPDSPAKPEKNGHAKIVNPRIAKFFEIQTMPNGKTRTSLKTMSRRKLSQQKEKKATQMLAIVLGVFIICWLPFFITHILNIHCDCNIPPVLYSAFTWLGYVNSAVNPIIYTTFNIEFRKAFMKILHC
Procedure: as §1, §2, §3, §4, §5
On the other hand, the corpus striatum was homogenized in a 0.32 M sucrose solution in an amount ten times the wet weight of the corpus striatum by the use of a teflon glass homogenizer and the obtained mixture was centrifuged at 1,000×G for 20 minutes. The obtained supernatant was centrifuged at 10,000×G for 20 minutes. The obtained sediments were suspended together in 50 mM Tris hydrochloride (pH 7.4) in an amount ten times the initial wet weight of the corpus striatum by the use of a histocothrom, and the obtained suspension was centrifuged at 10,000×G for 20 minutes. This operation was repeated thrice. The resulting sediment was suspended in 50 mM Krebs-Tris (pH 7.4) in an amount 100 times the initial wet weight of the corpus striatum by the use of a histocothrom. The obtained suspension was used as a receptor fraction. This receptor fraction was stored at -80° C. until use.
as §7, §8
5. [^3 H] Spiperone Binding Test
(§9) This test was conducted in the same manner as that of the binding test of [^3 H] Ketanserin except that the receptor fraction prepared from the corpus striatum was molten and suspended with a histocothrom, and the obtained suspension was incubated together with 1 nM-[^3 H], Spiperone at room temperature for 60 minutes and that the binding detected in the presence of 10 μl of Spiperone was regarded as nonspecific binding.

adrenergic α1 receptor = adrenergic α1 receptor binding test ([3H] Prazosin Binding Test); conditions: 1 nM [3H] Prazosin, rat cortex, room temperature, 60 minutes
Procedure: as §1, §2, §3, §4, §5, §6, §7, §8
6. [^3 H] Prazosin Binding Test
as §9, with “cortex” for “corpus striatum”, “H] Prazosin” for “H], Spiperone”, “Phentolamine” for “Spiperone”

[1] = read-out: Ki value, dopamine D2 receptor

| Structure (SMILES) | Ki (serotonin S2 receptor) [nM] | Ki (dopamine D2 receptor; [1]) [nM] | Ki (adrenergic α1 receptor) [nM] | Ki (dopamine D2 receptor; Ki value, dopamine D2 receptor) [nM] |
| --- | --- | --- | --- | --- |
| CCN1CCN(c2cc(-c3ccccc3)c(OC(C)C)c(-c3ccccc3)c2)CC1 [Example 60, 1-Ethyl-4-(3,5-diphenyl-4-isopropxy)phenylpiperazine] | > 1000 | > 1000 | > 1000 | – |
| CCN1CCN(c2cc(-c3ccccc3)c(Cl)c(S(=O)(=O)CC)c2)CC1 [Example 139, 1Ethyl-4-(3-phenyl-4-chloro-5-ethanesulfonyl)phenylpiperazine] | 5.38 | 2.34 | 68.7 | – |
| CCc1ccccc1-c1cc(N2CCN(CCO)CC2)cc(C(F)CC)c1Cl (centres unmarked) [Example 218, 1-(2-Hydroxyethyl)-4-[3-(2-ethylphenyl)-4-chloro-5-(1-fluoropropyl)]phenylpiperazine] | 30.1 | 5.39 | – | – |
| CCC(F)c1cc(N2CCN(CC)CC2)cc(-c2ccccc2COC)c1Cl (centres unmarked) [Example 145, 1-Ethyl-4-[3-(2-methoxymethylphenyl)-4-chloro-5-(1-fluoropropyl)]phenylpiperazine] | 72.5 | 8.28 | > 1000 | – |
| CC(C)S(=O)(=O)Nc1cc(N2CCN(C)CC2)cc(-c2ccccc2Cl)c1Cl [Example 182, 1-Methyl-4-(3-(2-chlorophenyl)-4-chloro-5-isopropylsulfonylamino]phenylpiperazine] | 145 | 2.34 | 186 | – |
| CCC(O)c1cc(N2CCN(CC)CC2)cc(-c2ccccc2)c1OC (centres unmarked) [Example 83, 1-Ethyl-4-[3-phenyl-4methoxy-5-(1-hydroxypropyl)]phenylpiperazine] | 84.5 | 485 | > 1000 | – |
| CCCS(=O)(=O)c1cc(N2CCN(C)CC2)cc(-c2ccccc2Cl)c1Cl [Example 180, 1-Methyl-4-[3-(2-chlorophenyl)-4-chloro-5-propanesulfonyl]phenylpiperazine] | 3.48 | 13 | > 100 | – |
| CCC(Cl)c1cc(N2CCN(CC)CC2)cc(-c2ccccc2Cl)c1Cl (centres unmarked) [Example 205, 1-Ethyl-4-[3-(2-chlorophenyl)-4-chloro-5-(1-chlorophenyl0phenylpiperazine)]phenylpiperazine] | 51.2 | 2.83 | – | – |
| CCCS(=O)(=O)Nc1cc(N2CCN(CC)CC2)cc(-c2ccccc2C)c1Cl [Example 153, 1-Ethyl-4-[3-(2-tolyl)-4-chloro-5-propanesulfonylamino]phenylpiperazine] | 4.19 | 1.53 | 68.7 | – |
| CCN1CCN(c2cc(CO)c(OC)c(-c3ccccc3)c2)CC1 [Example 102, 1-Ethyl-4-(3-phenyl-4-methoxy-5-hydroxymethyl)phenylpiperazine] | > 1000 | > 1000 | 525 | – |
| CCN1CCN(c2cc(-c3ccccc3)c(OC)c(C(O)c3ccccn3)c2)CC1 (centres unmarked) [Example 112, 1-Ethyl-4-[3-phenyl-4-methoxy-5-(2-pyridyl)hydroxymethyl]phenylpiperazine] | 7 | 972 | > 1000 | – |
| CCN1CCN(c2cc(-c3ccccc3)c(OC)c(S(=O)(=O)CCF)c2)CC1 [Example 172, 1-Ethyl-4-[3-phenyl-4-methoxy-5-(2-fluoroethane)sulfonyl]phenylpiperazine] | 30.3 | 48.9 | > 1000 | – |
| CCC(F)c1cc(N2CCN(CC)CC2)cc(-c2ccccc2C)c1Cl (centres unmarked) [Example 27, 1-Ethyl-4-[3-(2-tolyl)-4-chloro-5-(1-fluloropropyl)]phenylpiperazine] | 10.9 | 11.2 | 455 | – |
| CCCNS(=O)(=O)c1cc(N2CCN(CC)CC2)cc(-c2ccccc2C)c1Cl [Example 161, 1-Ethyl-4-[3-(2-tolyl)-4-chloro-5-propylaminosulfonyl]phenylpiperazine] | 22.5 | 9.8 | 776 | – |
| CC[C@@H](F)c1cc(N2CCN(CCO)CC2)cc(-c2ccccc2C(F)(F)F)c1Cl [Example 219, 1-(2-Hydroxyethyl)-4-{3-(2-trifluoromethylphenyl)-4-chloro-5-[1-(R)-fluoropropyl]}phenylpiperazine] | 151 | 5.54 | – | – |
| CC[C@H](F)c1cc(N2CCN(C)CC2)cc(-c2ccccc2C)c1Cl [Example 221, 1-Methyl-4-{3-(2-tolyl)-4-chloro-5-[1-(S)-fluoropropyl]}phenylpiperazine] | 4.53 | 3.45 | 486 | – |
| CCC(F)c1cc(N2CCN(CC)CC2)cc(-c2c(C)cccc2C)c1Cl (centres unmarked) [Example 215, 1-Ethyl-4-[3-(2,6-xylyl)-4-chloro-5-(1-fluoropropyl)]phenylpiperazine] | 15.3 | 2.28 | – | – |
| CC[C@@H](F)c1cc(N2CCN(C)CC2)cc(-c2ccccc2CF)c1Cl [Example 209] | 42.7 | 3.9 | – | – |
| CCN1CCN(c2cc(NS(=O)(=O)c3ccccc3)c(OC)c(-c3ccccc3)c2)CC1 [Example 120] | 17.4 | 0.36 | – | – |
| CCc1ccccc1-c1cc(N2CCN(CC)CC2)cc(C(F)CC)c1Cl (centres unmarked) [Example 217, 1-Ethyl-4-[3-(2-ethylphenyl)-4-chloro-5-(1-fluoropropyl)]phenylpiperazine] | 25.5 | 3.57 | – | – |
| CC[C@@H](F)c1cc(N2CCN(CC)CC2)cc(-c2ccc(F)cc2C)c1Cl [Example 212, 1-Ethyl-4-{3-[2-(4-fluorotolyl)]-4-chloro-5-[1-(R)-fluorophenyl]}phenylpiperazine] | 1020 | 3.9 | – | – |
| CCS(=O)(=O)c1cc(N2CCN(Cc3ccccn3)CC2)cc(-c2ccc(F)cc2)c1OC [Example 199, 1-(2-Pyridylmethyl)-4-[3-(4-fluorophenyl)-4-methoxy-5-ethanesulfonyl]phenylpiperazine] | 63.2 | 51.5 | – | – |
| C/C=C/c1cc(N2CCN(CC)CC2)cc(-c2ccccc2Cl)c1Cl [Example 204] | 187 | 14.4 | – | – |
| CCS(=O)(=O)c1cc(N2CCN(CCF)CC2)cc(-c2ccc(F)cc2)c1OC [Example 203, 1-(2-Fluoroethyl)-4-[3-(4-fluorophenyl)-4-methoxy-5-ethanesulfonyl]phenylpiperazine] | 54.8 | – | – | – |
| CC[C@H](F)c1cc(N2CCN(C)CC2)cc(-c2ccccc2CF)c1Cl [Example 210, 1-Methyl-4-{3-(2-fluoromethylphenyl)-4-chloro-5-[1-(S)-fluoropropyl]}phenylpiperazine] | 6.25 | 16.1 | – | – |
| CC[C@@H](F)c1cc(N2CCN(CC)CC2)cc(-c2ccccc2C(F)(F)F)c1Cl [Example 216, 1-Ethyl-4-{3-(2-trifluoromethylphenyl)-4-chloro-5-[1-(R)-fluoropropyl]}phenylpiperazine] | 79 | 11.3 | – | – |
| CCC(F)c1cc(N2CCN(CCO)CC2)cc(-c2ccccc2Cl)c1Cl (centres unmarked) [Example 23, 1-(2-Hydroxyethyl)-4-[3-(2-chlorophenyl)-4-chloro-5-(1-fluoropropyl)]phenylpiperazine] | 51.2 | 7.22 | – | – |
| CCS(=O)(=O)c1cc(N2CCNCC2)cc(-c2ccc(F)cc2)c1OC [Example 202, 1-[3-(4-Fluorophenyl)-4-methoxy-5-ethanesulfonyl]phenylpiperazine] | 6.33 | – | – | 90.5 |
